Measurements taken from ChEMBL document CHEMBL5131467, “Multivalent peptide dendrimers inhibit the fusion of viral-cellular membranes and the cellular NF-κB signaling pathway” (Eur J Med Chem, 2022).
Where a SMILES comes first, the peptide text is derived from it. Bridges are numbered along the chain shown (N, C = ends). Roman numbers before positions name the chains, in order. Side-chain parts run from the residue outwards. [ ]: non-standard residue; d: D form. The star is where a group is joined. ξ: configuration not given here. Phenylacetyl(4-Ph) = O=C(Cc1ccc(-c2ccccc2)cc1)*; Fmoc = O=C(OCC1c2ccccc2-c2ccccc21)*; Palmitoyl = CCCCCCCCCCCCCCCC(=O)*; ξW = NC(Cc1c[nH]c2ccccc12)C(=O)O; Lauroyl = CCCCCCCCCCCC(=O)*; Nonanoyl = CCCCCCCCC(=O)*; Octanoyl = CCCCCCCC(=O)*; ξK = NCCCCC(N)C(=O)O

Assays:
[1] = Cytotoxicity against MDCK cells incubated for 1 hr by MTT assay; assay type: toxicity, cell-based, Canis lupus familiaris; conditions: dog
Influenza A virus [2] = assay: Antiviral activity against Influenza A virus (A/Puerto Rico/8/1934(H1N1)) infected in MDCK cells assessed as reduction in virus induced cytopathic effect pre-treated with virus followed by cell infection for 1 hr by MTT assay; assay type: functional, organism-based
Influenza A virus [3] = assay: Antiviral activity against Influenza A virus (A/Puerto Rico/8/1934(H1N1)) infected in MDCK cells assessed as reduction in virus induced cytopathic effect during infection incubated for 1 hr by MTT assay; assay type: functional, organism-based
Influenza A virus [4] = assay: Antiviral activity against Influenza A virus (A/Puerto Rico/8/1934(H1N1)) infected in MDCK cells assessed as reduction in virus induced cytopathic effect after infection incubated for 1 hr by MTT assay; assay type: functional, organism-based
[5] = Selectivity index, ratio of CC50 for MDCK cells to IC50 antiviral activity against Influenza A virus (A/Puerto Rico/8/1934(H1N1)) infected in MDCK cells assessed as reduction in virus induced cytopathic effect pre-treated with virus; assay type: toxicity, cell-based; conditions: dog, read-out: Selectivity Index
Influenza A virus [6] = assay: Antiviral activity against Influenza A virus (A/Puerto Rico/8/1934(H1N1)) infected in MDCK cells assessed as reduction in virus induced cytopathic effect pretreated with compound incubated for 1 hrs by MTT assay; assay type: functional, organism-based
[7] = Cytotoxicity against MDCK cells by CCK-8 assay; assay type: toxicity, cell-based, Canis lupus familiaris; conditions: dog

SMILES	CC50 at 1 h [1] [nM]	IC50 (Influenza A virus [2]) [nM]	IC50 (Influenza A virus [3]) [nM]	IC50 (Influenza A virus [4]) [nM]	selectivity ratio [5]	IC50 (Influenza A virus [6]) [nM]	CC50 [7] [nM]
CCCCCCCCCCCC(=O)N[C@@H](CCCCN)C(=O)N[C@@H](CCCCN)C(=O)N[C@@H](Cc1c[nH]c2ccccc12)C(=O)N[C@@H](CCCCN)C(=O)NCCCC[C@H](NC(=O)[C@H](CCCCN)NC(=O)[C@H](Cc1c[nH]c2ccccc12)NC(=O)[C@H](CCCCN)NC(=O)[C@H](CCCCN)NC(=O)CCCCCCCCCCC)C(=O)NCCCC[C@H](NC(=O)[C@H](CCCCNC(=O)[C@H](CCCCN)NC(=O)[C@H](Cc1c[nH]c2ccccc12)NC(=O)[C@H](CCCCN)NC(=O)[C@H](CCCCN)NC(=O)CCCCCCCCCCC)NC(=O)[C@H](CCCCN)NC(=O)[C@H](Cc1c[nH]c2ccccc12)NC(=O)[C@H](CCCCN)NC(=O)[C@H](CCCCN)NC(=O)CCCCCCCCCCC)C(=O)NCC(=O)O (I: Lauroyl-KKWKK([Lys-Trp-Lys-Lys-Lauroyl])KG-OH / II: Lauroyl-KKWKK([Lys-Trp-Lys-Lys-Lauroyl]); amide I:6-II:C)	5470	280	430	> 5000	19.7	310	–
NCCCC[C@H](NC(=O)[C@H](Cc1c[nH]c2ccccc12)NC(=O)[C@H](CCCCN)NC(=O)[C@H](CCCCN)NC(=O)OCC1c2ccccc2-c2ccccc21)C(=O)O (Fmoc-KKWK-OH)	> 200000	4020	–	–	–	–	200000
CCCCCCCCCCCCCCCC(=O)N[C@@H](CCCCN)C(=O)N[C@@H](Cc1c[nH]c2ccccc12)C(=O)N[C@@H](CCCCN)C(=O)N[C@@H](CCCCN)C(=O)NCCCC[C@H](NC(=O)[C@H](CCCCN)NC(=O)[C@H](CCCCN)NC(=O)[C@H](Cc1c[nH]c2ccccc12)NC(=O)[C@H](CCCCN)NC(=O)CCCCCCCCCCCCCCC)C(=O)NCCCC[C@H](NC(=O)[C@H](CCCCNC(=O)[C@H](CCCCN)NC(=O)[C@H](CCCCN)NC(=O)[C@H](Cc1c[nH]c2ccccc12)NC(=O)[C@H](CCCCN)NC(=O)CCCCCCCCCCCCCCC)NC(=O)[C@H](CCCCN)NC(=O)[C@H](CCCCN)NC(=O)[C@H](Cc1c[nH]c2ccccc12)NC(=O)[C@H](CCCCN)NC(=O)CCCCCCCCCCCCCCC)C(=O)NCC(=O)O (I: Palmitoyl-KWKKK([Lys-Lys-Trp-Lys-Palmitoyl])KG-OH / II: Palmitoyl-KWKKK([Lys-Lys-Trp-Lys-Palmitoyl]); amide I:6-II:C)	670	190	170	> 5000	–	170	–
NCCCC[C@H](NC(=O)[C@H](Cc1c[nH]c2ccccc12)NC(=O)[C@H](CCCCN)NC(=O)[C@@H](N)CCCCN)C(=O)NCCCC[C@H](NC(=O)[C@H](CCCCN)NC(=O)[C@H](Cc1c[nH]c2ccccc12)NC(=O)[C@H](CCCCN)NC(=O)[C@@H](N)CCCCN)C(=O)NCCCC[C@H](NC(=O)[C@H](CCCCNC(=O)[C@H](CCCCN)NC(=O)[C@H](Cc1c[nH]c2ccccc12)NC(=O)[C@H](CCCCN)NC(=O)[C@@H](N)CCCCN)NC(=O)[C@H](CCCCN)NC(=O)[C@H](Cc1c[nH]c2ccccc12)NC(=O)[C@H](CCCCN)NC(=O)[C@@H](N)CCCCN)C(=O)NCC(=O)O (I: H-KKWKK([Lys-Trp-Lys-Lys])KG-OH / II: H-KKWKK([Lys-Trp-Lys-Lys]); amide I:6-II:C)	150000	> 5000	> 5000	–	–	> 10000	–
CCCCCCCCC(=O)NC(CCCCN)C(=O)NC(Cc1c[nH]c2ccccc12)C(=O)NC(CCCCN)C(=O)NC(CCCCN)C(=O)N[C@@H](CCCCNC(=O)[C@H](CCCCN)NC(=O)[C@H](CCCCN)NC(=O)[C@H](Cc1c[nH]c2ccccc12)NC(=O)[C@H](CCCCN)NC(=O)CCCCCCCC)C(=O)NCCCC[C@H](NC(=O)[C@H](CCCCNC(=O)[C@H](CCCCN)NC(=O)[C@H](CCCCN)NC(=O)[C@H](Cc1c[nH]c2ccccc12)NC(=O)[C@H](CCCCN)NC(=O)CCCCCCCC)NC(=O)[C@H](CCCCN)NC(=O)[C@H](CCCCN)NC(=O)[C@H](Cc1c[nH]c2ccccc12)NC(=O)[C@H](CCCCN)NC(=O)CCCCCCCC)C(=O)NCC(=O)O (stereo partly drawn) (I: Nonanoyl-KWKKK([Lys-Lys-Trp-Lys-Nonanoyl])KG-OH / II: Nonanoyl-[ξK][ξW][ξK][ξK]K([Lys-Lys-Trp-Lys-Nonanoyl]); amide I:6-II:C)	3480	770	1480	> 5000	4.5	580	–
CCCCCCCCCCCC(=O)N[C@@H](CCCCN)C(=O)N[C@@H](Cc1c[nH]c2ccccc12)C(=O)N[C@@H](CCCCN)C(=O)N[C@@H](CCCCN)C(=O)NCCCC[C@H](NC(=O)[C@H](CCCCN)NC(=O)[C@H](CCCCN)NC(=O)[C@H](Cc1c[nH]c2ccccc12)NC(=O)[C@H](CCCCN)NC(=O)CCCCCCCCCCC)C(=O)NCCCC[C@H](NC(=O)[C@H](CCCCNC(=O)[C@H](CCCCN)NC(=O)[C@H](CCCCN)NC(=O)[C@H](Cc1c[nH]c2ccccc12)NC(=O)[C@H](CCCCN)NC(=O)CCCCCCCCCCC)NC(=O)[C@H](CCCCN)NC(=O)[C@H](CCCCN)NC(=O)[C@H](Cc1c[nH]c2ccccc12)NC(=O)[C@H](CCCCN)NC(=O)CCCCCCCCCCC)C(=O)NCC(=O)O (I: Lauroyl-KWKKK([Lys-Lys-Trp-Lys-Lauroyl])KG-OH / II: Lauroyl-KWKKK([Lys-Lys-Trp-Lys-Lauroyl]); amide I:6-II:C)	1880	340	170	> 5000	5.5	380	–
CCCCCCCCCCCCCCCC(=O)N[C@@H](CCCCN)C(=O)N[C@@H](CCCCN)C(=O)N[C@@H](Cc1c[nH]c2ccccc12)C(=O)N[C@@H](CCCCN)C(=O)NCCCC[C@H](NC(=O)[C@H](CCCCN)NC(=O)[C@H](Cc1c[nH]c2ccccc12)NC(=O)[C@H](CCCCN)NC(=O)[C@H](CCCCN)NC(=O)CCCCCCCCCCCCCCC)C(=O)NCCCC[C@H](NC(=O)[C@H](CCCCNC(=O)[C@H](CCCCN)NC(=O)[C@H](Cc1c[nH]c2ccccc12)NC(=O)[C@H](CCCCN)NC(=O)[C@H](CCCCN)NC(=O)CCCCCCCCCCCCCCC)NC(=O)[C@H](CCCCN)NC(=O)[C@H](Cc1c[nH]c2ccccc12)NC(=O)[C@H](CCCCN)NC(=O)[C@H](CCCCN)NC(=O)CCCCCCCCCCCCCCC)C(=O)NCC(=O)O (I: Palmitoyl-KKWKK([Lys-Trp-Lys-Lys-Palmitoyl])KG-OH / II: Palmitoyl-KKWKK([Lys-Trp-Lys-Lys-Palmitoyl]); amide I:6-II:C)	1580	100	130	> 5000	–	140	–
NCCCC[C@H](NC(=O)OCC1c2ccccc2-c2ccccc21)C(=O)N[C@@H](Cc1c[nH]c2ccccc12)C(=O)N[C@@H](CCCCN)C(=O)N[C@@H](CCCCN)C(=O)NCCCC[C@H](NC(=O)[C@H](CCCCN)NC(=O)[C@H](CCCCN)NC(=O)[C@H](Cc1c[nH]c2ccccc12)NC(=O)[C@H](CCCCN)NC(=O)OCC1c2ccccc2-c2ccccc21)C(=O)NCCCC[C@H](NC(=O)[C@H](CCCCNC(=O)[C@H](CCCCN)NC(=O)[C@H](CCCCN)NC(=O)[C@H](Cc1c[nH]c2ccccc12)NC(=O)[C@H](CCCCN)NC(=O)OCC1c2ccccc2-c2ccccc21)NC(=O)[C@H](CCCCN)NC(=O)[C@H](CCCCN)NC(=O)[C@H](Cc1c[nH]c2ccccc12)NC(=O)[C@H](CCCCN)NC(=O)OCC1c2ccccc2-c2ccccc21)C(=O)NCC(=O)O (I: Fmoc-KWKKK([Lys-Lys-Trp-Lys-Fmoc])KG-OH / II: Fmoc-KWKKK([Lys-Lys-Trp-Lys-Fmoc]); amide I:6-II:C)	11700	620	1160	5000	18.8	470	–
CCCCCCCC(=O)N[C@@H](CCCCN)C(=O)N[C@@H](CCCCN)C(=O)N[C@@H](Cc1c[nH]c2ccccc12)C(=O)N[C@@H](CCCCN)C(=O)NCCCC[C@H](NC(=O)[C@H](CCCCN)NC(=O)[C@H](Cc1c[nH]c2ccccc12)NC(=O)[C@H](CCCCN)NC(=O)[C@H](CCCCN)NC(=O)CCCCCCC)C(=O)NCCCC[C@H](NC(=O)[C@H](CCCCNC(=O)[C@H](CCCCN)NC(=O)[C@H](Cc1c[nH]c2ccccc12)NC(=O)[C@H](CCCCN)NC(=O)[C@H](CCCCN)NC(=O)CCCCCCC)NC(=O)[C@H](CCCCN)NC(=O)[C@H](Cc1c[nH]c2ccccc12)NC(=O)[C@H](CCCCN)NC(=O)[C@H](CCCCN)NC(=O)CCCCCCC)C(=O)NCC(=O)O (I: Octanoyl-KKWKK([Lys-Trp-Lys-Lys-Octanoyl])KG-OH / II: Octanoyl-KKWKK([Lys-Trp-Lys-Lys-Octanoyl]); amide I:6-II:C)	8560	570	640	> 5000	15	420	–
NCCCC[C@H](NC(=O)Cc1ccc(-c2ccccc2)cc1)C(=O)N[C@@H](CCCCN)C(=O)N[C@@H](Cc1c[nH]c2ccccc12)C(=O)N[C@@H](CCCCN)C(=O)NCCCC[C@H](NC(=O)[C@H](CCCCN)NC(=O)[C@H](Cc1c[nH]c2ccccc12)NC(=O)[C@H](CCCCN)NC(=O)[C@H](CCCCN)NC(=O)Cc1ccc(-c2ccccc2)cc1)C(=O)NCCCC[C@H](NC(=O)[C@H](CCCCNC(=O)[C@H](CCCCN)NC(=O)[C@H](Cc1c[nH]c2ccccc12)NC(=O)[C@H](CCCCN)NC(=O)[C@H](CCCCN)NC(=O)Cc1ccc(-c2ccccc2)cc1)NC(=O)[C@H](CCCCN)NC(=O)[C@H](Cc1c[nH]c2ccccc12)NC(=O)[C@H](CCCCN)NC(=O)[C@H](CCCCN)NC(=O)Cc1ccc(-c2ccccc2)cc1)C(=O)NCC(=O)O (I: {Phenylacetyl(4-Ph)}-KKWKK([Lys-Trp-Lys-Lys-Phenylacetyl(4-Ph)])KG-OH / II: {Phenylacetyl(4-Ph)}-KKWKK([Lys-Trp-Lys-Lys-Phenylacetyl(4-Ph)]); amide I:6-II:C)	19300	190	200	–	103	170	–
